Values belong to the compound of their own block, whether it stands above or below them. Where a SMILES comes first, the peptide text is derived from it. Where no end group is shown, it is not given here. [ ]: non-standard residue; d: D form. The star is where a group is joined. 1Nal = N[C@@H](Cc1cccc2ccccc12)C(=O)O; AEEA = NCCOCCOCC(=O)O; Butyryl = CCCC(=O)*
Assays:
[1] = Peptide bioavailability in mouse vitreous after 5 μg eye drop (MALDI TOF); format: in vivo, C57BL/6 mice; conditions: compared to P78 and SpxA1
Description: Before the longitudinal efficacy studies were carried out in vivo, the bioavailability of the five analogs was examined in comparison to the parent compound P78 and its active 29-mer derivative, SpxA1.
Bioavailability of each peptide was determined in vitreous samples obtained at various time points after eye drops were given. Vitreous samples were harvested from enucleated eyes and immediately analyzed by mass spectrometry. Spectral intensities were compared to spectra of known concentrations of each analog to calculate amounts of peptides reaching the vitreous. The eye drops administered to normal mouse eyes contained 5 μg of the test compound. Bioavailability was studied at three time points: 1, 4, 6 hr using four animals/time point (n=8 eyes). The vitreous was rapidly dissected from each group after the drops were given and immediately analyzed by MALDI TOF.

[2] = tested on: VEGFA; test: VEGFA secretion by RPE cells, Luminex; format: cell-based, human; conditions: for effect in reducing VEGFA levels compared to P78: 25 nM peptide, serum starvation
Description: (§1) The analogs were tested for their efficacy in reducing levels of TNFα, IFNγ, VEGF-A and increasing cell viability in in vitro assays. Efficacy was compared to both non-treated oxidative stressed controls and the control standard P78.
(§2) Briefly, to test efficacy of the compounds in preventing cell death, experiments were performed to screen for the ability of each analog to: 1) increase cellular bioenergetic levels in an ATP assay and 2) reduce cell death in an LDH assay. To test the action of each analog on inflammatory processes, Luminex bead arrays were used to examine the ability of each analog to decrease production of inflammatory cytokines. To test for the potential of each analog to reduce vascular leakage, qPCR was used to examine the ability of each analog to increase mRNA levels of ZO1 and occludin, two junction proteins essential to vascular integrity. To test peptide stability in the vitreous, the analogs were incubated with dissected vitreous humor and the samples were analyzed at various time points using Maldi-TOF. These tests allowed for the systematic selection of analogs having the least toxicity and the strongest potential to reduce pathology in vivo.
Experiments were designed to assess the effects of each peptide compared to P78 on the inflammatory and vascular permeability/angiogenesis cytokines TNFα, IFNγ, and VEGFA. Briefly, human retinal RPE cells were grown to ˜75% confluency in 10% serum containing medium. The cells were then exposed to serum starvation in the presence or absence (control) of 25 nM of each peptide including the prototype P78 and the active fragment of P78, SpxA1. The supernatant from each treatment was tested for effects on the secretion of TNFα, IFNγ, and VEGFA. The data represent the percent change to the control samples and p values are given for each peptide in relationship to the P78 treatment (FIGS. 3A through 3B).

[3] = tested on: RPE cultures; test: In vitro tests of inflammation, angiogenesis and cell viability, summarised together; format: cell-based, human; conditions: assays other than VEGFA
Description: as §1
The analogs disclosed in Table 1 were assayed for improved stability and efficacy in in vitro assays for inflammation, angiogenesis, and cell death, which are the three leading pathological features of diabetic retinopathy.
as §2, with “These tests allowed for the systematic selection of analogs having the least toxicity and the strongest potential to reduce pathology in vivo.” left out

[4] = tested on: human ARPE19 cells; test: Cell viability by ATP levels (CellTiter-Glo), serum starvation or H2O2; format: cell-based; conditions: for ATP viability tests: selection for in vivo studies: serum starvation and 300 uM H2O2, 25 nM peptide, 48 hr
Description: as §1, §2
The effects of the peptides to increase cell viability by increasing levels of ATP were tested in two models of cell death: (i) serum starvation; (ii) oxidative stress caused by hydrogen peroxide toxicity (300 uM). With respect to serum starvation, human ARPE19 cells were grown to ˜85% confluency in 10% serum containing medium after which the cells were placed in serum-free medium for 48 hr in the presence or absence (control) of 25 nM of each peptide. For ATP assay, CellTiter-Glo® reagents were used and luminescence was determined after 12 min spectrophotometrically (n=4) (FIG. 2A). With respect to oxidative stress, human ARPE19 cells were grown to ˜85% confluency in 10% serum containing medium. The cells were then treated with 300 uM H2O2 for 48 hours in the presence or absence (control) of 25 nM of each peptide. Levels of ATP were measured and % luminescence to controls and P78 was quantitated (n=4). Changes to ATP levels are plotted against control values and p values are given to P78 (FIG. 2B).

[5] = tested on: ZO1 and occludin; test: qPCR of tight junction mRNA (potential to reduce vascular leakage); format: cell-based; conditions: compared to P78 and SpxA1
Description: as §2
To test for the potential of each peptide (81-2, 81-5, 81-12, 81-13 and 81-20) to reduce vascular leakage, qPCR was used to examine the ability of each analog to increase mRNA levels of Z01, a junction protein essential to vascular integrity (FIG. 4A).

[6] = tested on: HUVEC; test: VEGF-mediated HUVEC tube formation on human dermal fibroblasts; format: cell-based; conditions: 100 nM peptide, 4 ng/ml VEGF, 12 days; compared to VEGF
Description: Human dermal fibroblasts were cultured at 1×10^5/well in IncuCyte seeding medium (Essen Bioscience) in 96 wells plates for 1 hr. Medium was removed and replaced with complete IncuCyte growth medium (Essen Bioscience). Human umbilical vein endothelial cells (HUVEC) containing a green fluorescent marker (HUVEC CytoLight green) cells at 2000 cells/well were/well to attached dermal fibroblasts cultures and placed in the IncuCyte Zoom fluorescent and phase contrast multiplex imaging incubator (Essen BioScience). Twenty four hours later 4 ng/ml VEGF was added to all wells and 100 nM/ml PEDF peptides added to test wells. Cultures containing VEGF alone were used as positive controls and those containing 100 μM Suramin (VEGF inhibitor) used as negative controls. The cultures were placed at 37° C. in the Incucyte Zoom and HUVEC tube length networks measured over a 12 day incubation period using the Incucyte CellPlayer Angiogenesis software module and interface systems. Media was refreshed every 3-4 days.

[7] = in vivo; parameters: species or system rodents; conditions: topical or ocular, 2 ug
Description: In addition, bioavailability studies of the peptides in rodent eyes were conducted and the results were compared to the control standard P78 peptide. For example, the peptides were tested in bioavailability studies in rodents at 1, 2, 4, 8 hrs (n=4 each peptide/time pt). The animals were given a single eye drop containing 2 μg of each peptide. At each time point the animals were sacrificed, vitreous harvested, and bioavailability assessed by Maldi TOF.

[8] = tested on: VEGF; test: Vitreous VEGF after 15 wks eye drops (Luminex); format: in vivo, Ins2Akita mouse; conditions: 5 μg eye drop 2×/wk for 15 wks, relative to diabetic controls
Description: From the in vitro P78 peptide analog screening studies, five structurally diverse analogs with best biological activity were selected to test their efficacy in the diabetic mouse eye. In vivo effects of these peptides were tested in the Ins2Akita mouse model of DR, a well-characterized DR model that has a mutation in the insulin gene. Heterozygote Ins2Akita mice (Jackson Lab) become hyperglycemic (HG) at ˜4.5 wks of age. RGC death and inflammation occur within the first 4-6 wks of DR and vascular pathology is first noticed ˜13 wks after the onset of diabetes. The studies were designed to identify peptide candidates with pleotrophic effects on cell death, inflammation, and vascular leakage in the diabetic retina.
Male hyperglycemic mice with blood glucose levels >300 mg/dL were used and treatments carried as previously described for P78 (Liu et al., 2012, Mol. Med., 18(1): 1387-1401). Diabetic mice were treated 2×/wk for 15 wks at the onset of HG using a single dose of 5 μg/5 μl artificial tears for each drug, a dose at which P78 is effective. Both eyes received the same treatment to avoid drug cross contamination between the eyes of an individual animal. […]
Levels of VEGF were also quantitated in the vitreous of the 15 wks peptide treated and control groups using the Luminex bead technology. […]

[9] = tested on: TNFα; test: TNFα secretion by RPE cells, Luminex; format: cell-based, human
Description: as §1, §2
(§3) Experiments were designed to assess the effects of each peptide compared to P78 on the inflammatory and vascular permeability/angiogenesis cytokines TNFα, IFNγ, and VEGFA. […]

[10] = tested on: IFNγ; test: IFNγ secretion by RPE cells, Luminex; format: cell-based, human
Description: as §1, §2, §3

[11] = change versus control standard P78
[12] = change versus non-treated stressed control (C)

Compound: FGADERTESIIHR [Peptide 81-19]
effect in reducing VEGFA levels compared to P78 [2]: significantly better effects in reducing VEGFA levels
effect on the other assays compared to P78 [3]: less effective than P78

Compound: L-1-NALGADERTESIIHR ([1Nal]GADERTESIIHR) [Peptide 81-20]
ATP viability tests: selection for in vivo studies [4]: good candidates for the in vivo studies
ZO1 mRNA expression [5]: higher expression of ZO1 compared to P78 and SpxA1
inhibition of HUVEC tube formation [6]: prevented tube formation compared to VEGF but less effective

Compound: VLLSPLSVATALSAISIGADARTASIIHR [Peptide 81-10]
effect in reducing VEGFA levels compared to P78 [2]: significantly better effects in reducing VEGFA levels
effect on the other assays compared to P78 [3]: less effective than P78

Compound: {BA*}NFGYDLYRVRSSMSPTTNSALSLGADERTESIIHR{PEG*} (not fully specified (N-terminus, C-terminus); printed as {BA*}NFGYDLYRVRSSMSPTTNSALSLGADERTESIIHR{PEG*}) [Peptide 81-12, P60 + 81-1, butyric acid at N-terminus, PEGylated at C-terminus]
ATP viability tests: selection for in vivo studies [4]: good candidates for the in vivo studies
ZO1 mRNA expression [5]: higher expression of ZO1 compared to P78 and SpxA1
VEGF levels in the vitreous [8]: slightly but significantly more effective
inhibition of HUVEC tube formation [6]: prevented tube formation compared to VEGF but less effective

Compound: {BA*}VLLSPLSVATALSAISIGADARTASIIHR{PEG*} (VLLSPLSVATALSAISIGADARTASIIHR[AEEA]; not fully specified (N-terminus); printed as {BA*}VLLSPLSVATALSAISIGADARTASIIHR{PEG*}) [Peptide 81-4, butyric acid on N-terminus, PEG2-CH2COOH at C-terminus]
*TNFα % to P78 [9, 11]: −8%
*TNFα % to C [9, 12]: −2%
*IFNγ % to P78 [10, 11]: −11%
*IFNγ % to C [10, 12]: −15%
*VEGF % to P78 [2, 11]: −0%
*VEGF % to C [2, 12]: −11%
*ATP % to P78 [4, 11]: 9%
*ATP % to C [4, 12]: +7%

Other lines, results leading:

stability profile in the vitreous after 6 hr [1]: best stability profile
Compound: CCCC(=O)N[C@@H](CO)C(=O)N[C@@H](C)C(=O)N[C@H](C(=O)N[C@@H](CO)C(=O)N[C@H](C(=O)NCC(=O)N[C@@H](C)C(=O)N[C@@H](CC(=O)O)C(=O)N[C@@H](C)C(=O)N[C@@H](CCCNC(=N)N)C(=O)N[C@H](C(=O)N[C@@H](C)C(=O)N[C@@H](CO)C(=O)N[C@H](C(=O)N[C@H](C(=O)N[C@@H](Cc1c[nH]cn1)C(=O)N[C@@H](CCCNC(=N)N)C(=O)NCCOCCOCC(=O)O)[C@@H](C)CC)[C@@H](C)CC)[C@@H](C)O)[C@@H](C)CC)[C@@H](C)CC [Peptide 81-5, {BA*}SAISIGADARTASIIHR{PEG*}] (Butyryl-SAISIGADARTASIIHR[AEEA]-OH)

level at 4 h [7]: 2280 ng/mL
Compound: SAISIGADARTASIIHR [Peptide 81-3, SAISIGADARTASIIHR]

level at 4 h [7]: 2000 ng/mL
Compound: SAISIGADERTESIIHR [Peptide 81-2, SAISIGADERTESIIHR]

level at 4 h [7]: 1800 ng/mL
Compound: SALSLGADERTESIIHR [Peptide 81-1, SALSLGADERTESIIHR]

level at 4 h [7]: 920 ng/mL
Compound: VLLSPLSVATALSALSLGADERTESIIHR [SpxA1]

level at 4 h [7]: 1200 ng/mL
Compound: VLLSPLSVATALSALSLGADERTESIIHRALYYDLISSPDIHGT [Peptide P-78, reference compound]
